What all share (format): biochemical
Assay [1] deals with T1, MMP-2FL (full length Gelatinase A) (Homo sapiens, UniProt P08253).
T1 sequence (P08253 110-660): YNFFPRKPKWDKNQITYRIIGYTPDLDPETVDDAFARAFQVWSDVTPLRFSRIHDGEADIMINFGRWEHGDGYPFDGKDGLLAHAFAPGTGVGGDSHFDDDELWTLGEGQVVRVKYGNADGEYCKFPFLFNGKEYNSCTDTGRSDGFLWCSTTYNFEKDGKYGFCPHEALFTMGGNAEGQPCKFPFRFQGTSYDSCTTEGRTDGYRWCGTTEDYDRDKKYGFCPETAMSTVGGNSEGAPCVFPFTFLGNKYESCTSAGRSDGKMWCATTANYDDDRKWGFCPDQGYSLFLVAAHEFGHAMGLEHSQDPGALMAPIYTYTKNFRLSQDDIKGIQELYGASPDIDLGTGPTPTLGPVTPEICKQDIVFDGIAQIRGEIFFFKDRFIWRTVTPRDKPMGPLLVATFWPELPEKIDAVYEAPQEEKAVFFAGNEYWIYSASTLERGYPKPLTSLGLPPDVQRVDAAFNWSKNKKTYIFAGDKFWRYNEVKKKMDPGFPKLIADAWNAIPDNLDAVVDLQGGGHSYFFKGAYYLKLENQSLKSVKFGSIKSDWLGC
The experiment in a line: Thiopeptolide substrate hydrolysis assay, MMP-2FL. The settings on record: HEPES pH 7.0, 22° C., read-out: IC50 (μM) Versus Certain MMPs: MMP-02 FL. From the text: (§1) The invention compounds of Formula I have been evaluated in standard assays for their ability to inhibit the catalytic activity of various MMP enzymes.
(§2) Thiopeptolide substrates show virtually no decomposition or hydrolysis at or below neutral pH in the absence of a matrix metalloproteinase enzyme.
(§3) Several representative compounds have been evaluated for their ability to inhibit various matrix metalloproteinase enzymes.

Assay [2] has as its target T2, MMP-7FL (full length matrilysin) (Homo sapiens, UniProt P09237).
T2 sequence (P09237 95-267): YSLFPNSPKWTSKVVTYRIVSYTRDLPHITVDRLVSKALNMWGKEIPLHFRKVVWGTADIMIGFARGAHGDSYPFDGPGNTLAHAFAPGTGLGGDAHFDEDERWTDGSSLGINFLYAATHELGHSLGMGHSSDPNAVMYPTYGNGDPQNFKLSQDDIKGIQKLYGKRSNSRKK
Put plainly: Thiopeptolide substrate hydrolysis assay, MMP-7FL. The settings on record: HEPES pH 7.0, 22° C., read-out: IC50 (μM) Versus Certain MMPs: MMP-07 FL.
Source text: as §1, §2, §3

In assay [3] the target is MMP-9FL (full length Gelatinase B) (Homo sapiens, UniProt P14780). The experiment in a line: Thiopeptolide substrate hydrolysis assay, MMP-9FL. Particulars: HEPES pH 7.0, 22° C., read-out: IC50 (μM) Versus Certain MMPs: MMP-09 FL.
Sequence of MMP-9FL (full length Gelatinase B) (P14780 94-707, species assumed): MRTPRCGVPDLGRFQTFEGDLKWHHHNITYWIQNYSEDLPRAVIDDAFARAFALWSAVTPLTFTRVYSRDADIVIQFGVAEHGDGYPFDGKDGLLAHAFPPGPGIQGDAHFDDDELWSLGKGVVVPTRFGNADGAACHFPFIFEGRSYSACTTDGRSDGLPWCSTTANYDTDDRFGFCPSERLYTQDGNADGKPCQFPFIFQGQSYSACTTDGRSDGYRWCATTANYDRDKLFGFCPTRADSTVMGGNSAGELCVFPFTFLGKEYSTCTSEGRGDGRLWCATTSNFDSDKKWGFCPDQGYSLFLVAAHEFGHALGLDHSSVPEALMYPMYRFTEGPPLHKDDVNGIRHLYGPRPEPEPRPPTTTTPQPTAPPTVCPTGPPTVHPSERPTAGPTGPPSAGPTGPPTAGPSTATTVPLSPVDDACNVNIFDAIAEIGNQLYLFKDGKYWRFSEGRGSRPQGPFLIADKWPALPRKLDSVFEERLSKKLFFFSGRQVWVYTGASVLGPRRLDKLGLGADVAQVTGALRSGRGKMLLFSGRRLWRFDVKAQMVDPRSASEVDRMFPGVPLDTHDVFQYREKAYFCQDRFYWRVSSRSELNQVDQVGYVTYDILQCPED
Source text: as §1, §2, §3

Assay [4] concerns the target MMP-14CD (catalytic domain of MMP-14) (Homo sapiens, UniProt P50281). The experiment in a line: Thiopeptolide substrate hydrolysis assay, MMP-14CD. The settings on record: HEPES pH 7.0, 22° C., read-out: IC50 (μM) Versus Certain MMPs: MMP-14 CD.
Source text: as §1, §2, §3

Counter-ions that a name gives are not always drawn.

The IC50 is the concentration that inhibits the measured activity by half.

As to `Cc1c(=O)n(Cc2cccc(C#N)c2)c(=O)n2cc(C(=O)NCc3ccncc3)sc12` [Example 82, 6-(3-Cyano-benzyl)-8-methyl-5,7-dioxo-6,7-dihydro-5H-thiazolo[3,2-c]pyrimidine-2-carboxylic acid(pyridin-4-ylmethyl)-amide hydrochloride], the IC50 in assay [1], in assay [2], in assay [3] and in assay [4] was over 30 µM throughout.

Take `Cc1c(=O)n(Cc2ccccc2)c(=O)n2cc(C(=O)NCc3cccnc3)sc12` [Example 44, 6-benzyl-8-methyl-5,7-dioxo-6,7-dihydro-5H-thiazolo[3,2-c]pyrimidine-2-carboxylic acid(pyridin-3-ylmethyl)-amide]: the IC50 in assay [1] is over 100 µM; in assay [2], over 100 µM; in assay [3], over 30 µM; in assay [4] it was over 100 µM.

With `Cc1ccc(CNC(=O)c2cn3c(=O)n(Cc4ccccc4)c(=O)c(C)c3s2)cc1` [Example 48, 6-Benzyl-8-methyl-5,7-dioxo-6,7-dihydro-5H-thiazolo[3,2-c]pyrimidine-2-carboxylic acid 4-methyl-benzylamide], the half-maximal inhibitory concentration (IC50) in assay [1] is over 30 µM; in assay [2] it was 28 µM; in assay [3], over 100 µM; in assay [4], over 100 µM.

As to `COc1ccc(CNC(=O)c2cn3c(=O)n(Cc4ccc(C(=O)OCCN(C)C)cc4)c(=O)c(C)c3s2)cc1` [Example 57, 4-[2-(4-Methoxy-benzylcarbamoyl)-8-methyl-5,7-dioxo-7H-thiazolo[3,2c]pyrimidin-6-ylmethyl]-benzoic acid 2-dimethylamine-ethyl ester hydrochloride], the 50% inhibitory concentration (IC50) in assay [1], in assay [2], in assay [3] and in assay [4] was over 30 µM throughout.

For `COc1ccc(CNC(=O)c2cn3c(=O)n(Cc4ccccc4)c(=O)c(C)c3s2)cc1F` [Example 46, 6-Benzyl-8-methyl-5,7-dioxo-6,7-dihydro-5H-thiazolo[3,2-c]pyrimidine-2-carboxylic acid 3-fluoro-4-methoxy-benzylamide], the IC50 is over 100 µM in assay [1], over 30 µM in assay [2], over 100 µM in assay [3] and over 100 µM in assay [4].

`Cc1nc(Cn2c(=O)c(C)c3sc(C(=O)NCc4ccc(F)cc4)cn3c2=O)cs1` [Example 64, 8-Methyl-6-(2-methyl-thiazol-4-ylmethyl)-5,7-dioxo-6,7-dihydro-5H-thiazolo[3,2-c]pyrimidine-2-carboxylic acid 4-fluoro-benzylamide]: the IC50 in assay [1] was over 100 µM; in assay [2], over 100 µM; in assay [3] it was over 30 µM; in assay [4], over 100 µM.

In the case of `Cc1c(=O)n(Cc2ccccc2)c(=O)n2cc(C(=O)NCc3ccc(F)cc3)sc12` [Example 30, 6-Benzyl-8-methyl-5,7-dioxo-6,7-dihydro-5H-thiazolo[3,2-c]pyrimidine-2-carboxylic acid 4-fluoro-benzylamide], the IC50 in assay [1], in assay [2], in assay [3] and in assay [4] was over 30 µM each time.

Regarding `Cc1cccc(CNC(=O)c2cn3c(=O)n(Cc4ccccc4)c(=O)c(C)c3s2)c1` [Example 28, 6-Benzyl-8-methyl-5,7-dioxo-6,7-dihydro-5H-thiazolo[3,2-c]pyrimidine-2-carboxylic acid 3-methyl-benzylamide], the 50% inhibitory concentration (IC50) in assay [1] was over 30 µM; in assay [2], 71 µM; in assay [3], over 30 µM; in assay [4], over 100 µM.

For the compound `Cc1c(=O)n(Cc2ccccc2)c(=O)n2cc(C(=O)NCc3ccc(F)c(F)c3)sc12` [Example 43, 6-Benzyl-8-methyl-5,7-dioxo-6,7-dihydro-5H-thiazolo[3,2-c]pyrimidine-2-carboxylic acid 3,4-difluoro-benzylamide], the IC50 was over 30 µM in assay [1], over 30 µM in assay [2], over 30 µM in assay [3] and over 100 µM in assay [4].

Take `Cc1c(=O)n(Cc2ccc3oc(=O)ccc3c2)c(=O)n2cc(C(=O)NCc3ccc(F)cc3)sc12` [Example 80, 8-Methyl-5,7-dioxo-6-(2-oxo-2H-1-benzopyran-6-ylmethyl)-6,7-dihydro-5H-thiazolo[3,2-c]pyrimidine-2-carboxylic acid 4-fluoro-benzylamide]: the IC50 in assay [1], in assay [2], in assay [3] and in assay [4] was over 30 µM throughout.

With `O=C(NCc1ccccc1)c1cn2c(=O)n(Cc3ccncc3)c(=O)cc2s1` [Example 15, 6-(4-Pyridylmethyl)-5,7-dioxo-6,7-dihydro-5H-thiazolo[3,2-c]pyrimidine-2-carboxylic acid benzylamide hydrochloride], the IC50 in assay [1], in assay [2], in assay [3] and in assay [4] was over 100 µM in each case.

`Cc1c(=O)n(Cc2ccccc2)c(=O)n2cc(C(=O)NCc3ccc(C(F)(F)F)cc3)sc12` [Example 49, 6-Benzyl-8-methyl-5,7-dioxo-6,7-dihydro-5H-thiazolo[3,2-c]pyrimidine-2-carboxylic acid 4-trifluoromethyl-benzylamide]: the IC50 in assay [1] is over 30 µM; in assay [2] it was over 100 µM; in assay [3] it was over 100 µM; in assay [4], over 100 µM.

Regarding `Cc1c(=O)n(Cc2ccccc2)c(=O)n2cc(C(=O)NCc3cccc(F)c3)sc12` [Example 10, 6-Benzyl-8-methyl-5,7-dioxo-6,7-dihydro-5H-thiazolo[3,2-c]pyrimidine-2-carboxylic acid 3-fluoro-benzylamide], the half-inhibitory concentration (IC50) in assay [1] is over 100 µM; in assay [2], 21 µM; in assay [3], over 30 µM; in assay [4] it was over 30 µM.

Take `O=C(NCc1ccncc1)c1cn2c(=O)n(Cc3ccccc3)c(=O)cc2s1` [Example 9, 6-Benzyl-5,7-dioxo-6,7-dihydro-5H-thiazolo[3,2-c]pyrimidine-2-carboxylic acid(pyridin-4-ylmethyl)-amide hydrochloride]: the half-maximal inhibitory concentration (IC50) in assay [1], in assay [2], in assay [3] and in assay [4] was over 100 µM throughout.

Take `COc1ccc(CNC(=O)c2cn3c(=O)n(Cc4ccccc4)c(=O)c(C=O)c3s2)cc1` [Example 32, 6-Benzyl-8-formyl-5,7-dioxo-6,7-dihydro-5H-thiazolo[3,2-c]pyrimidine-2-carboxylic acid 4-methoxy-benzylamide]: the IC50 in assay [1] was over 100 µM; in assay [2], over 30 µM; in assay [3] it was over 100 µM; in assay [4], over 30 µM.

With `CC#CCn1c(=O)c(C)c2sc(C(=O)NCc3ccc(F)cc3)cn2c1=O` [Example 79, 6-But-2-ynyl-8-methyl-5,7-dioxo-6,7-dihydro-5H-thiazolo[3,2-c]pyrimidine-2-carboxylic acid 4-fluoro-benzylamide], the IC50 in assay [1], in assay [2], in assay [3] and in assay [4] was over 100 µM each time.

Turning to `Cc1c(=O)n(Cc2ccc(C(=O)OCCN(C)C)cc2)c(=O)n2cc(C(=O)NCc3ccc(F)cc3)sc12` [Example 60, 4-[2-(4-Fluoro-benzylcarbamoyl)-8-methyl-5,7-dioxo-7H-thiazolo[3,2-c]pyrimidin-6-ylmethyl]-benzoic acid 2-dimethylamino-ethyl ester], the half-maximal inhibitory concentration (IC50) in assay [1], in assay [2], in assay [3] and in assay [4] was over 100 µM in each case.

Consider `Cc1c(=O)n(Cc2ccccc2)c(=O)n2cc(C(=O)NCc3ccc(Cl)cc3)sc12` [Example 50, 6-Benzyl-8-methyl-5,7-dioxo-6,7-dihydro-5H-thiazolo[3,2-c]pyrimidine-2-carboxylic acid 4-chloro-benzylamide], for which the IC50 in assay [1] was over 30 µM; in assay [2], 31 µM; in assay [3], over 100 µM; in assay [4], over 100 µM.

As for `Cc1c(=O)n(Cc2ccc(-c3nn[nH]n3)cc2)c(=O)n2cc(C(=O)NCc3ccc(F)cc3)sc12` [Example 75, 8-Methyl-5,7-dioxo-6-[4-(2H-tetrazol-5-yl)-benzyl]-6,7-dihydro-5H-thiazolo[3,2-c]pyrimidine-2-carboxylic acid 4-fluoro-benzylamide], the IC50 in assay [1], in assay [2], in assay [3] and in assay [4] was over 100 µM throughout.

The values above are taken from patent US20060040957A1, “BICYCLIC PYRIMIDINE MATRIX METALLOPROTEINASE INHIBITORS” (priority 2001, published 2006).
